Measured values from patent US10682388B2, “Targeting of PELP1 in cancer therapy” (THE BOARD OF REGENTS OF THE UNIVERSITY OF TEXAS SYSTEM, priority 2014, dated 2020).
Entries after “also recorded” stand apart in the source; their conditions may differ.

Columns and labels:
[1] = target: T1, PELP1, G9a and ERα complex (Homo sapiens, UniProt Q8IZL8); assay: Competition assay for the complex of PELP1, G9a and ERα; format: binding; conditions: FIG. 2C
T1 construct: purified bacterial, full-length PELP1; host or cells: bacteria (PELP1)
Procedure: FIGS. 2A-D. (FIG. 2A) Immunoprecipitation was performed on nuclear lysates obtained from […]1 cells grown in 5% DCC for 72 hours and treated with estradiol 10^-7 M for 12 hours. PELP1 was immunoprecipitated and western blotting was performed for PELP1 and G9a expression with IgG as the control. (FIG. 2B) Various fragments of PELP1 bound to glutathione beads were incubated with recombinant G9a for 2 hours. Beads were washed, run on an SDS-PAGE gel and immunoblotted for G9a expression. GST tag alone is shown as control. (FIG. 2C) Recombinant G9a-GST was bound to glutathione beads and incubated with purified PELP1 and peptides for 2 hours. Beads were washed and run on SDS-PAGE gel. (FIG. 2D) ZR75 cells were transfected with ERE-luciferase, PELP1 and/or G9a plasmids and treated with peptide for 24 hours and estradiol 10^-7 M for 12 hours. Relative luciferase activity is shown. Peptides were linked to EZ-Link NHS-Biotin (Thermo Scientific) per manutfacturer's protocol. […] Beads were washed 3× with IP buffer (20 mM HEPES pH 7.9, 20% glycerol, 0.1% triton-x, 100 mM KCl), eluted with SDS-dye, and PELP1 expression was determined by western blotting. […]

[2] = tested on: ZR75, ZR75PELP1, MCF7 and MCF7PELP1 cells; assay: MTT proliferation assay, breast cancer cells with and without PELP1 overexpression; format: cell-based, Human; conditions: 10 μM every 3 days, day 7, FIG. 4A
Procedure: FIGS. 4A-E. (FIG. 4A) ZR75vec, ZR75PELP1, MCF7vec and MCF7PELP1 cells were treated in triplicate with TAT, PIP1 or PIP1 deletions (Del1, Del2, Del3) at 10 uM every 3 days and proliferation was measured by MTT assay on day 7. (FIG. 4B) ZRPELP1 cells were transfected with ERE-luciferase and treated with TAT, PIP1, or PIP2 for 24 hours and with estradiol for 12 hours. Relative luciferase activity was measured in triplicate. (FIG. 4C) ZR75 cells were grown in 5% DCC media for 72 hours, treated with TAT or PIP1 every 3 days, and treated with estradiol 10^−7 M for 12 hours. Proliferation was measured in triplicate on day 7 by MTT assay at 595 nm. (FIG. 4D) MCF7-Letrozole resistant cells were grown in 5% DCC media for 72 hours, treated with TAT, PIP1 or PIP2 every 3 days, and letrozole or estradiol 10^−7 M for 12 hours. Proliferation was measured in triplicate on day 7 by MTT assay at 595 nm. […] Proliferation was measured in triplicate on day 7 by MTT assay at 595 nm.
Cell proliferation rates were measured by using MTT Cell Viability Assay in 96-well plates. […] After an overnight incubation, cells were treated with varying concentrations of the peptides for 3-7 days and growth inhibition was determined by using traditional MTT assay (Sigma) following manufacturer's instructions.

[3] = tested on: ZR75PELP1KD and MCF7PEP1KD cells; assay: MTT proliferation assay in PELP1 knockdown cells; format: cell-based, Human; conditions: increasing doses 10, 20, or 50 μM, day 7, FIGS. 8A-B
Procedure: FIGS. 8A-C. (FIG. 8A) ZR75PELP1KD cells were treated in triplicate with TAT or PIP1 (10, 20, or 50 μM) every 3 days and proliferation was measured by MTT assay on day 7. (FIG. 8B) MCF7PELP1KD cells were treated in triplicate with TAT or PIP1 (10, 20, or 50 μM) every 3 days and proliferation was measured by MTT assay on day 7. (FIG. 8C) MDAMB231 and MDAMB468 cells were treated in triplicate with TAT or PIP1 (10 μM) every 3 days and proliferation was measured by MTT assay on day 7. Cell proliferation rates were measured by using MTT Cell Viability Assay in 96-well plates. Model cells were seeded in 96-well plates (1×10^3 cells/well) in DMEM or RPMI medium containing 10% serum. After an overnight incubation, cells were treated with varying concentrations of the peptides for 3-7 days and growth inhibition was determined by using traditional MTT assay (Sigma) following manufacturer's instructions.

ZRPELP1 cells = assay: Soft agar colony formation assay; format: cell-based, Human; conditions: 10 μM every three days, colonies counted day 14, FIG. 5C
Procedure: FIGS. 5A-D. (FIG. 5A) ZR75vec, ZR75PELP1, MCF7vec and MCF7PELP1 cells were plated in the top of a Boyden chamber transwell, treated with TAT, PIP1 or PIP2 (10 μM) and absorbance was measured at 12 hours in triplicate. (FIG. 5B) MCF7vec, MCFP7ELP1, ZR75vec and ZR75PELP1 cells were treated in triplicate with TAT, PIP1 or PIP2 (10 μM) every 3 days, fixed with methanol on day 10 and stained with crystal violet. Average colonies per well are shown. (FIG. 5C) ZR75vec and ZR75PELP1 cells were plated in triplicate in agar with 8% RPMI with TAT, PIP1 or PIP2 (10 μM). Colonies were counted on day 14, representative images are shown on right. (FIG. 5D) ZR75 cells were plated on coverslips in triplicate and treated with TAT or PIP1 (10 μM) for 24 hours. Cells were fixed with paraformaldehyde and labeled with TUNEL and DAPI, representative images are shown on right.
Model cells MCF7, MCF7-PELP1, ZR75 and ZR75-PELP1 were seeded in a 0.6% agar solution with RPMI/10% FBS over a base agar layer in 35 mm plates in triplicate with TAT, PIP1, or PIP2 (10 μM). Media with peptide was added every 3 days and colonies were counted after 14 days.

BG1 cells = assay: Ovarian cancer cell proliferation; format: cell-based; conditions: BG1, FIG. 14
Procedure: FIG. 14. […] Cell proliferation rates were measured by using MTT Cell Viability Assay in 96-well plates. Model cells were seeded in 96-well plates (1×10^3 cells/well) in DMEM or RPMI medium containing 10% serum. After an overnight incubation, cells were treated with varying concentrations of the peptides for 3-7 days and growth inhibition was determined by using traditional MTT assay (Sigma) following manufacturer's instructions.

T1 sequence (Q8IZL8 2-1130, one chain of several): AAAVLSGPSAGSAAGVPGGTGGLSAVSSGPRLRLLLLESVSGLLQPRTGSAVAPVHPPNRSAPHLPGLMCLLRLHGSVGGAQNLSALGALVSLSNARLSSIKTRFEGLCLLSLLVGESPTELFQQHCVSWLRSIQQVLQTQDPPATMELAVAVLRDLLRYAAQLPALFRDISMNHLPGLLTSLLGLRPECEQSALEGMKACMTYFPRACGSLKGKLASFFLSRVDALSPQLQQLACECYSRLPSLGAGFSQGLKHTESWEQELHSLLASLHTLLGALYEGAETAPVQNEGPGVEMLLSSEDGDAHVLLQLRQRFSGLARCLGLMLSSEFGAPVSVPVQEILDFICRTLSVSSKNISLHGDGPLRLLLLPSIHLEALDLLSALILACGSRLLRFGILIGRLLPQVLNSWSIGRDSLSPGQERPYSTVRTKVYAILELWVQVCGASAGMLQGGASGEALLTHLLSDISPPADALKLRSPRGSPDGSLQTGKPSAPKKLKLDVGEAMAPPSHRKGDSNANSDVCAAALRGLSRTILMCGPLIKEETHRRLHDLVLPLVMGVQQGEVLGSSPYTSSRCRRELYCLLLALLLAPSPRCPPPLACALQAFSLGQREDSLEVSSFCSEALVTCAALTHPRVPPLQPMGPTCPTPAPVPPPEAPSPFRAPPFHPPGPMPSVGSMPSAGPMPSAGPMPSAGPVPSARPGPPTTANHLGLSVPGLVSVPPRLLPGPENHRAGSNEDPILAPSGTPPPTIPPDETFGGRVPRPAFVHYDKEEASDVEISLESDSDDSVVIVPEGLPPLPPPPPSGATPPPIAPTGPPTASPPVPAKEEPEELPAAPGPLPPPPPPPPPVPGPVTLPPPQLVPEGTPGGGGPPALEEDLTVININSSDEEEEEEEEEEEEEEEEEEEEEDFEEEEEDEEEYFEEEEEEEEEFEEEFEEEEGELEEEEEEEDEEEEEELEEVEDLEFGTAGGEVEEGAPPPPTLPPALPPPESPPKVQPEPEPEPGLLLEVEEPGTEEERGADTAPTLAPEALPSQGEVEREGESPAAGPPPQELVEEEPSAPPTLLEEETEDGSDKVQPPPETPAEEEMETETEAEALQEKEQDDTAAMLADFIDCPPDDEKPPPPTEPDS

## GRKKRRQRRRGGMVEFRWSCPGRRKAKA [PIP1]
[1]
  formation of PELP1, G9a and ERα complex: prevents the three proteins from forming a complex
[2]
  proliferation by MTT assay: significant decrease
[3]
  proliferation in PELP1 knockdown cells: only saw an effect at very high concentrations
ZRPELP1 cells
  colony formation in soft agar (anchorage independence): substantial decrease in colony formation
BG1 cells
  proliferation of ovarian cancer cells: dose-dependent decrease in the proliferation; also recorded: inhibits proliferation of ovarian cancer cells
